Twelve compounds from PubChem BioAssay (NCI) can be followed below.

Some test systems named below: SF-268 CNS; HL-60(TB) leukemia; SF-295 CNS; OVCAR-3 ovarian; NCI-H23 lung; SK-MEL-28 melanoma; HCC-2998 colon; SW-620 colon; LOX IMVI melanoma; UACC-62 melanoma.
Holding throughout (test): growth of human tumour cells (NCI), 48 h

The structures appear in SMILES notation. Values joined by “and” are separate entries in the source; they are usually repeats but may differ in a detail not shown here. Identical values can stand only once.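 Protocol summary: plate cells (96-well), add compound at 5 concentrations, incubate 48 h, interpolate endpoints linearly. GI50 = concentration required for 50% inhibition of growth. The concentration for full growth arrest is given as TGI.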 Bounds are passed on as bounds.

On to `COc1cc(CC2C(=O)OCC2[C@@H](OC(C)=O)c2ccc3c(c2)OCO3)c(Br)c(OC)c1OC` (some centres not stated), for which the TGI in the assay on SF-268 CNS, with HL-60(TB) leukemia, in the assay on SF-295 CNS, in the assay with OVCAR-3 ovarian, in the assay with NCI-H23 lung and in the assay with SK-MEL-28 melanoma was above 100 µM throughout. In addition, the TGI with HCC-2998 colon, with SW-620 colon, with LOX IMVI melanoma and in the assay with UACC-62 melanoma was above 100 µM each time.

Regarding `O=c1sc(-c2nc3ccccc3[nH]2)c(/N=C/c2ccccc2)n1-c1ccccc1`, the TGI was above 100 µM with SF-268 CNS; above 100 µM in the assay with HL-60(TB) leukemia; above 100 µM in the assay with SF-295 CNS; 65.6 µM in the assay with OVCAR-3 ovarian; above 100 µM in the assay with NCI-H23 lung; above 100 µM with SK-MEL-28 melanoma. Besides, the TGI in the assay with HCC-2998 colon, in the assay with SW-620 colon, with LOX IMVI melanoma and in the assay on UACC-62 melanoma was above 100 µM each time.

`c1cnc2nc3n(c2c1)CSC3`: the TGI with SF-268 CNS, with HL-60(TB) leukemia, with SF-295 CNS, in the assay on OVCAR-3 ovarian, in the assay on NCI-H23 lung and in the assay with SK-MEL-28 melanoma was above 100 µM throughout. The TGI in the assay with HCC-2998 colon, with SW-620 colon, in the assay with LOX IMVI melanoma and with UACC-62 melanoma was above 100 µM in each case.

Regarding `COC(=O)C1=Cc2cn(S(=O)(=O)c3ccc(C)cc3)c3cccc(c23)C(C=C(C)C)N1C(C)=O` (configuration not stated), the TGI is above 100 µM with SF-268 CNS; 41.2 µM in the assay with HL-60(TB) leukemia; above 100 µM with SF-295 CNS; above 100 µM in the assay with OVCAR-3 ovarian; above 100 µM with NCI-H23 lung; above 100 µM with HCC-2998 colon. The TGI with SW-620 colon, in the assay on LOX IMVI melanoma and in the assay on UACC-62 melanoma was above 100 µM in each case.

`COC1C(C)OC(OC2CC(C)(O)Cc3cc4c(c(O)c32)C(=O)c2c(O)cc3c(c2C4=O)OC2OC3(C)C(O)C(N(C)C)C2O)C(OC)C1(C)OC` (configuration not stated): the GI50 with SF-268 CNS was 0.0512 µM and 0.0161 µM; with HL-60(TB) leukemia, 0.0711 µM and 0.105 µM; in the assay on SF-295 CNS, 0.0538 µM and 0.0356 µM; in the assay with OVCAR-3 ovarian, 0.104 µM and 0.0376 µM; with NCI-H23 lung, 0.0395 µM and 0.0216 µM; with SK-MEL-28 melanoma, 0.0687 µM and 0.0334 µM. Besides, the GI50 with HCC-2998 colon is 0.0393 µM; in the assay with SW-620 colon, 0.038 µM and 0.024 µM; in the assay with LOX IMVI melanoma, 0.0226 µM and 0.0661 µM; in the assay on UACC-62 melanoma, 0.00441 µM and 0.0312 µM. Moreover, the TGI is 1.81 µM and 1.03 µM with SF-268 CNS; 0.588 µM and 0.535 µM in the assay with HL-60(TB) leukemia; 0.447 µM and 0.178 µM in the assay with HCC-2998 colon; 2.84 µM and 2.41 µM with SW-620 colon.

For `COc1cc2oc(-c3ccc(O)cc3)cc(=O)c2c(OC)c1O`, the TGI in the assay with SF-268 CNS, in the assay with HL-60(TB) leukemia, with SF-295 CNS, in the assay on OVCAR-3 ovarian, in the assay with NCI-H23 lung and in the assay on SK-MEL-28 melanoma was above 100 µM throughout. The TGI with HCC-2998 colon, with SW-620 colon, in the assay on LOX IMVI melanoma and in the assay on UACC-62 melanoma was above 100 µM in each case.

Consider `O=Cc1cn(S(=O)(=O)c2ccccc2)c2ccccc12`, for which the TGI with SF-268 CNS was above 100 µM; in the assay on HL-60(TB) leukemia, 49.2 µM; in the assay with SF-295 CNS, above 100 µM; in the assay on OVCAR-3 ovarian, above 100 µM; with NCI-H23 lung, 85 µM; in the assay with SK-MEL-28 melanoma it was above 100 µM. Also, the TGI was above 100 µM with HCC-2998 colon, above 100 µM with SW-620 colon, 43.8 µM in the assay with LOX IMVI melanoma and 86 µM with UACC-62 melanoma.

Consider `N/C(=N/N=C/c1cccc(F)c1)NO`, for which the TGI was 68.7 µM in the assay with SF-268 CNS; 93.5 µM in the assay with HL-60(TB) leukemia; above 100 µM with SF-295 CNS; above 100 µM in the assay on OVCAR-3 ovarian; above 100 µM in the assay on NCI-H23 lung; above 100 µM with SK-MEL-28 melanoma. For the same compound, the TGI is above 100 µM in the assay with HCC-2998 colon, above 100 µM with SW-620 colon, 97.7 µM with LOX IMVI melanoma and 41 µM in the assay on UACC-62 melanoma.

In the case of `CCN(CC)CCNC(=O)C(Cl)=C1C(Cl)=C(Cl)C(Cl)=C1Cl`, the GI50 is 3.25 µM with SF-268 CNS; 3.35 µM in the assay with HL-60(TB) leukemia; 5.39 µM with SF-295 CNS; 2.45 µM in the assay on OVCAR-3 ovarian; 5.44 µM with NCI-H23 lung; 2.45 µM with SK-MEL-28 melanoma. In addition, the GI50 in the assay with HCC-2998 colon is 8.08 µM; in the assay with SW-620 colon, 3.25 µM; in the assay with LOX IMVI melanoma, 1.83 µM; in the assay on UACC-62 melanoma, 2.18 µM. Further, the TGI came out at 22 µM in the assay with SF-268 CNS; 7.06 µM in the assay on HL-60(TB) leukemia; 29.3 µM in the assay on SF-295 CNS; 7.45 µM in the assay with OVCAR-3 ovarian; 26.5 µM in the assay with NCI-H23 lung; 7.11 µM in the assay on SK-MEL-28 melanoma. In addition, the TGI in the assay with HCC-2998 colon was found to be 22.8 µM; in the assay with SW-620 colon it was 12.5 µM; with LOX IMVI melanoma, 4.53 µM; in the assay with UACC-62 melanoma, 12.4 µM.

As to `CN1c2ccccc2S(=O)(=O)n2c(COc3ccccc3)nnc21`, the TGI with SF-268 CNS, in the assay on HL-60(TB) leukemia, with SF-295 CNS, in the assay with OVCAR-3 ovarian, in the assay on NCI-H23 lung and with SK-MEL-28 melanoma was above 100 µM throughout. Also, the TGI with HCC-2998 colon, in the assay with SW-620 colon, in the assay on LOX IMVI melanoma and in the assay with UACC-62 melanoma was above 100 µM throughout.

Turning to `CN(CC1NCCCC1O)C12CC3CC(CC(C3)C1)C2` (configuration not stated), the TGI in the assay with SF-268 CNS, in the assay with HL-60(TB) leukemia, with SF-295 CNS, in the assay with OVCAR-3 ovarian, in the assay on NCI-H23 lung and in the assay on HCC-2998 colon was above 100 µM throughout. For the same compound, the TGI with SW-620 colon, with LOX IMVI melanoma and in the assay on UACC-62 melanoma was above 100 µM in each case.

On to `O=C1CCCCCCCCCCOC(=O)CCCCCCCCCCO1`, for which the TGI was above 100 µM with SF-268 CNS; 44.8 µM in the assay with HL-60(TB) leukemia; above 100 µM in the assay on SF-295 CNS; above 100 µM with OVCAR-3 ovarian; above 100 µM in the assay with NCI-H23 lung; above 100 µM in the assay with SK-MEL-28 melanoma. Besides, the TGI in the assay with HCC-2998 colon, with SW-620 colon, in the assay with LOX IMVI melanoma and in the assay on UACC-62 melanoma was above 100 µM each time.
